Source: patent US11555200B2, “Regulation of cotton fiber growth by extracellular nucleotides and ectoapyrases” (priority 2008, dated 2023)
Entries after “also recorded” stand apart in the source; their conditions may differ.

Experiments:
cotton fibers = test: In vitro cotton ovule culture, fiber growth (fiber length); type: cell-based, Gossypium hirsutum; settings: for increase in average fiber length: by 7 dpa; for block of promotion of fiber growth by 30 μM ATPγS and ADPβS: co-applied with 30 μM nucleotide, 7 dpa; for reversal of the effects of high concentrations of ATPγS and ADPβS on fiber growth: co-applied with 150 μM ATPγS or ADPβS; for block of both the inhibition and stimulation of fiber growth by ATPγS and ADPβS: summary statement
Protocol: In Vitro Ovule Culture. Cotton bolls were harvested within 24 hours of flower opening, 1-DPA, and all petals bracts, and sepals were removed. All collected cotton bolls were used within 24 hours of original harvest. If the bolls were not used immediately they were stored in a 4° C. refrigerator until ready for use. For sterilization, bolls were dropped into an 85% ethanol solution for at least 30 seconds but not more than two minutes and then removed with forceps. The excess ethanol was shaken off and the boll was passed through a flame until the residual ethanol was burned off. Ovules were then excised and placed in 10 mL of BT Cotton Media cell culture (Caisson Laboratories, Inc., North Logan, Utah, USA)+5.0 μM IAA and 0.5 μM GA3 (Sigma, St. Louis, Mo., USA) hormone solution, final concentration, in 60×15 mm Petri dishes and were then wrapped in Milli Wrap (Millipore Corporation, Bedford, Mass.). Twelve to 16 cotton ovules were placed into their respective Petri dishes and incubated with nucleotides, inhibitors, antibody serum or a combination of these at specified concentrations and were cultured at 32° C. in the dark without agitation. To facilitate combing of the cultured ovules, ovules were placed in a 75% ethanol solution for 15 minutes and then taken out to be combed. Fiber lengths were measured manually with a dissecting microscope after laying the ovule on its side and combing the fiber cells away from the ovule with forceps and dissecting probe.
In Vitro Cotton Ovule Culture Treatments. For studies testing the effects of apyrase inhibitors on cotton fiber growth, the inhibitors (NGXT191 and AI #4, both at 2.5 mg/mL), were dissolved in dimethyl sulfoxide and then applied to Cotton Media cell culture at 3 and 5 DPA after the introduction of cotton ovules to the media. For experiments testing the effects of apyrase antibodies on cotton fiber growth, apyrase antibodies were applied to Cotton Media cell culture at 3 and 5 DPA after the introduction of cotton ovules in the appropriate amounts. For experiments testing the effects of applying nucleotides during cotton fiber growth, various concentrations of ATPγS, ADPβS, and AMP (Sigma-Aldrich, Inc., St. Louis, Mo., USA) were added to Cotton Media cell culture at 5 DPA after the introduction of cotton ovules in the appropriate amounts. All nucleotides were made into 50 mM stocks dissolved in de-ionized water and kept at −20° C. while not in use. The inhibitor stocks were stored at ˜20° C. while not in use. For experiments testing the effects of P2-receptor antagonists, the antagonists (PPADS and Adenosine, stocks at 50 mM) were dissolved in de-ionized water and then applied to Cotton Media cell culture at 3 and 5 DPA for inhibitor and antibody experiments and 5 DPA for applied nucleotide experiments. The antagonists stocks were stored at ˜20° C. while not in use (Sigma-Aldrich, Inc., St. Louis, Mo., USA). The ethylene inhibitor (S)-trans-2-Amino-4-(2-aminoethoxy)-3-butenoic acid hydrochloride (Sigma-Aldrich, Inc., St. Louis, Mo., USA) (AVG, stock at 50 mM) was dissolved in de-ionized water and then applied to Cotton Media cell culture at 5 DPA. The production of the Arabidopsis anti-APY1 and APY2 antibodies used is described by Steinebrunner et al. (2003). The crude immune and pre-immune sera were purified using protein A-sepharose following the protocol described by Martin et al. (1982) with the slight modification that the buffers used were azide-free. Bio-rad assay was used to determine that the concentration of the immune serum and pre-immune serum which was 0.46 μg/mL and 0.3 μg/mL, respectively.

apyrase activity = test: ATP level in the medium outside growing cotton fibers in ovule culture; type: cell-based, Gossypium hirsutum; settings: highest concentration of inhibitor, versus control level of 330 nM
Text: Apyrase inhibitors and anti-apyrase antibodies inhibit fiber elongation. In order to test whether apyrase activity is important during cotton fiber growth we applied varying concentrations of two different chemical apyrase inhibitors, apyrase inhibitor 4 and NGXT191, to cotton ovule cultures at 3 dpa and 5 dpa. […] There is clearly a dose-dependent effect, and the effects at each dosage are statistically significant. […] The level of inhibition increased with increasing concentrations of both inhibitors. Next when PPADS, an inhibitor of animal purinoceptors, was tested, it could block the 40% inhibition of fiber growth caused by application of the highest concentration of apyrase inhibitors. […] Application of the highest concentration of inhibitors NGXT191 and 4 caused a 2.1-fold and 3.2-fold increase in ATP levels, respectively.
In Vitro Ovule Culture. Cotton bolls were harvested within 24 hours of flower opening, 1-DPA, and all petals bracts, and sepals were removed. All collected cotton bolls were used within 24 hours of original harvest. If the bolls were not used immediately they were stored in a 4° C. refrigerator until ready for use. […] Fiber lengths were measured manually with a dissecting microscope after laying the ovule on its side and combing the fiber cells away from the ovule with forceps and dissecting probe. […]

Nc1ncnc2c1ncn2[C@@H]1O[C@H](COP(=O)(O)OP(O)(O)=S)[C@@H](O)[C@H]1O [ADPβS]
increase in average fiber length (cotton fibers; 30 μM): 44% | effect on fiber growth (cotton fibers; 150 μM, at 7 dpa): inhibit growth

Nc1ncnc2c1ncn2[C@@H]1O[C@H](COP(O)(O)=S)[C@@H](O)[C@H]1O [AMPS]
effect on fiber growth (cotton fibers; 200 μM, at 7 dpa): no effect on growth | effect on fiber growth (cotton fibers; concentration not given): no change in the growth rate; also recorded: no effect on fiber growth

Nc1ncnc2c1ncn2[C@@H]1O[C@H](COP(=O)(O)OP(=O)(O)OP(O)(O)=S)[C@@H](O)[C@H]1O [ATPγS]
promotion of cotton fiber growth (cotton fibers; 30 μM, at 5 dpa (data not shown)): statistically significant levels of promotion of cotton fiber growth | growth rate of fibers (cotton fibers; 30 μM, between 5 dpa and 7 dpa (data not shown)): statistically significant increase in the growth rate | increase in average fiber length (cotton fibers; 30 μM): 46% | inhibition of cotton fiber growth (cotton fibers; 150 μM, at 5 dpa): Statistically significant levels of inhibition of cotton fiber growth | effect on fiber growth (cotton fibers; 150 μM, at 7 dpa): inhibit growth

Cc1cccc(NS(=O)(=O)c2ccc(-c3ccccc3)cc2)c1 [NGXT191]
increase in ATP levels outside of the growing fibers (apyrase activity): 2.1 fold | inhibition of fiber growth (cotton fibers; all three concentrations, applied at 3 dpa and 5 dpa, fibers measured at 7 dpa): statistically significant inhibition of fiber growth

Cc1nc(N=Nc2ccc(S(=O)(=O)O)cc2S(=O)(=O)O)c(COP(=O)(O)O)c(C=O)c1O [PPADS]
reversal of fiber growth inhibition caused by apyrase inhibitors (cotton fibers; 250 μM PPADS in the media with highest concentration of apyrase inhibitors): returned to control levels | block of promotion of fiber growth by 30 μM ATPγS and ADPβS (cotton fibers): blocked | reversal of the effects of high concentrations of ATPγS and ADPβS on fiber growth (cotton fibers): reversed | block of both the inhibition and stimulation of fiber growth by ATPγS and ADPβS (cotton fibers): blocked

Nc1ncnc2c1ncn2[C@@H]1O[C@H](CO)[C@@H](O)[C@H]1O [adenosine]
block of promotion of fiber growth by 30 μM ATPγS and ADPβS (cotton fibers): blocked | reversal of the effects of high concentrations of ATPγS and ADPβS on fiber growth (cotton fibers): reversed | block of both the inhibition and stimulation of fiber growth by ATPγS and ADPβS (cotton fibers): blocked
